Experimental data taken from patent EP2934149B1, “C6-AZASPIRO IMINOTHIADIAZINE DIOXIDES AS BACE INHIBITORS” (Merck Sharp & Dohme Corp., priority 2012, dated 2014).

Columns and labels:
[1] = target: soluble human BACE1 catalytic domain (Homo sapiens, UniProt P56817); assay: BACE1 HTRF FRET Assay; format: biochemical; details: Ki calculated from IC50 using the Cheng-Prusoff equation; QSY7-APPswe-Eu substrate 200 nM final, pH 5.0, 30° C
Protocol: A homogeneous time-resolved FRET assay can be used to determine IC50 values for inhibitors of the soluble human BACE1 catalytic domain. […] This substrate contains an N-terminal QSY7 moiety that serves as a quencher of the C-terminal Europium fluorophore (620nm Em). […] Inhibition of BACE1 cleavage of the QSY7-APP^swe-Eu substrate by inhibitors is manifested as a suppression of 620 nm fluorescence. […] The reactions are incubated at 30° C for 1.5 hours. The 620nm fluorescence is then read on a Rubystar HTRF plate reader (BMG Labtechnologies) using a 50 millisecond delay followed by a 400 millisecond acquisition time window. Inhibitor IC50 values are derived from non-linear regression analysis of concentration response curves.

[2] = target: T1, purified human autoBACE-2 (Homo sapiens, UniProt Q9Y5Z0); assay: BACE-2 Assay (BACE-HTRF assay); format: biochemical; details: Ki calculated from IC50 using the Cheng-Prusoff equation; QSY7-EISEVNLDAEFC-Eu-amide substrate 200 nM final, pH 5.0, 30°C; read-out: BACE2 Ki
T1 sequence (Q9Y5Z0 63-473 limits assumed): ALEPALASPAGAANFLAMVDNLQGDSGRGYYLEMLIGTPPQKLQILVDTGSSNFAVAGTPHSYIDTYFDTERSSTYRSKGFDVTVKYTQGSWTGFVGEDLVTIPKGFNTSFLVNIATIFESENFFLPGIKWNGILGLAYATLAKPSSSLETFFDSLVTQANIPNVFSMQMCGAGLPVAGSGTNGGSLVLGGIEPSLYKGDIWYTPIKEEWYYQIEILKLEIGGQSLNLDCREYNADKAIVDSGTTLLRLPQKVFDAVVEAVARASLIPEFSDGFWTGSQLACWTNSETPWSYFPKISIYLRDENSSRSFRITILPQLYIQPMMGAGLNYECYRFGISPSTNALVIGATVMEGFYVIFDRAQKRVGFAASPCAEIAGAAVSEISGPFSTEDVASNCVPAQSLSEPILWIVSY
Protocol: Inhibitor IC50's at purified human autoBACE-2 are determined in a time-resolved endpoint proteolysis assay that measures hydrolysis of the QSY7-[…]-Eu-amide FRET peptide substrate (BACE-HTRF assay). […] Inhibitor compounds, prepared at 3x the desired final concentration in 1x BACE assay buffer (20 mM sodium acetate pH 5.0,10% glycerol, 0.1% Brij-35) supplemented with 7.5% DMSO are pre-incubated with an equal volume of autoBACE-2 enzyme diluted in 1x BACE assay buffer (final enzyme concentration 1 nM) in black 384-well NUNC plates for 30 minutes at 30°C. […] DMSO is present at 5% final concentration in the assay. Following laser excitation of sample wells at 320 nm, the fluorescence signal at 620 nm is collected for 400 ms following a 50 µs delay on a RUBYstar HTRF plate reader (BMG Labtechnologies). Raw RFU data is normalized to maximum (1.0 nM BACE/DMSO) and minimum (no enzyme/DMSO) RFU values. […] The Ki values are calculated from the IC50 using the Cheng-Prusoff equation.

Chain of soluble human BACE1 catalytic domain (P56817 75-416 limits assumed): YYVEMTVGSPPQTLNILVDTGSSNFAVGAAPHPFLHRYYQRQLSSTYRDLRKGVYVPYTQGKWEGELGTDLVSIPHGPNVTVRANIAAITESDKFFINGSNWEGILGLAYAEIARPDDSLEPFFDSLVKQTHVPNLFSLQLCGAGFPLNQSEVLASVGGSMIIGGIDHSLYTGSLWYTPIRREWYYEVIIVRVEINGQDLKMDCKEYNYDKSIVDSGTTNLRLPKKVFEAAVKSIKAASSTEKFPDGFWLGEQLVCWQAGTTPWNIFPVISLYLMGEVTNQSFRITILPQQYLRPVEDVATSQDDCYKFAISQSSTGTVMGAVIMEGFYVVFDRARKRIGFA

CN1C(=N)N[C@](C)(c2cc(NC(=O)c3ccc(F)cn3)ccc2F)[C@@]2(CCN(Cc3cccnc3)C2)S1(=O)=O [Example 46]
Ki [1]: 54 nM | Ki [2]: 40 nM

CN1C(=N)N[C@](C)(c2cc(NC(=O)c3ccc(F)cn3)ccc2F)[C@@]2(CCN(CC3CC3)C2)S1(=O)=O [Example 47]
Ki [1]: 58 nM | Ki [2]: 51 nM

CN1C(=N)N[C@](C)(c2cc(NC(=O)c3ccc(F)cn3)ccc2F)[C@@]2(CCN(Cc3cocn3)C2)S1(=O)=O [Example 49]
Ki [1]: 33 nM | Ki [2]: 21 nM

CN1C(=N)N[C@](C)(c2cc(NC(=O)c3ccc(F)cn3)ccc2F)[C@@]2(CCN(Cc3cncnc3)C2)S1(=O)=O [Example 50]
Ki [1]: 70 nM | Ki [2]: 77 nM

CN1C(=N)N[C@](C)(c2cc(NC(=O)c3ccc(F)cn3)ccc2F)[C@@]2(CCN(Cc3cnn(C)c3)C2)S1(=O)=O [Example 51]
Ki [1]: 151 nM | Ki [2]: 184 nM

CCCCN1CC[C@]2(C1)[C@@](C)(c1cc(NC(=O)c3ccc(F)cn3)ccc1F)NC(=N)N(C)S2(=O)=O [Example 52]
Ki [1]: 73 nM | Ki [2]: 61 nM

CN1C(=N)N[C@](C)(c2cc(NC(=O)c3ccc(F)cn3)ccc2F)[C@@]2(CCN(Cc3ccncc3)C2)S1(=O)=O [Example 53]
Ki [1]: 84 nM | Ki [2]: 61 nM

CN1C(=N)N[C@](C)(c2cc(NC(=O)c3ccc(F)cn3)ccc2F)[C@@]2(CCN(Cc3cnco3)C2)S1(=O)=O [Example 54]
Ki [1]: 54 nM | Ki [2]: 74 nM

COc1ccc(C(=O)Nc2ccc(F)c([C@@]3(C)NC(=N)N(C)S(=O)(=O)[C@@]34CCN(S(C)(=O)=O)C4)c2)nc1 [Example 55]
Ki [1]: 3 nM | Ki [2]: 10 nM

CCS(=O)(=O)N1CC[C@@]2(C1)[C@@](C)(c1cc(NC(=O)c3ccc(OC)cn3)ccc1F)NC(=N)N(C)S2(=O)=O [Example 56]
Ki [1]: 1 nM | Ki [2]: 6 nM

COc1ccc(C(=O)Nc2ccc(F)c([C@@]3(C)NC(=N)N(C)S(=O)(=O)[C@@]34CCN(S(=O)(=O)CC(C)C)C4)c2)nc1 [Example 57]
Ki [1]: 1 nM | Ki [2]: 5 nM

COc1ccc(C(=O)Nc2ccc(F)c([C@@]3(C)NC(=N)N(C)S(=O)(=O)[C@@]34CCN(S(=O)(=O)c3ccc(F)cc3)C4)c2)nc1 [Example 58]
Ki [1]: 3 nM | Ki [2]: 20 nM

COc1ccc(C(=O)Nc2ccc(F)c([C@@]3(C)NC(=N)N(C)S(=O)(=O)[C@@]34CCN(S(=O)(=O)c3ccccc3)C4)c2)nc1 [Example 59]
Ki [1]: 3 nM | Ki [2]: 16 nM

COc1ccc(C(=O)Nc2ccc(F)c([C@@]3(C)NC(=N)N(C)S(=O)(=O)[C@@]34CCN(S(=O)(=O)C3CC3)C4)c2)nc1 [Example 60]
Ki [1]: 1 nM | Ki [2]: 4 nM

COc1ccc(C(=O)Nc2ccc(F)c([C@@]3(C)NC(=N)N(C)S(=O)(=O)[C@@]34CCN(S(=O)(=O)c3cn(C)cn3)C4)c2)nc1 [Example 61]
Ki [1]: 6 nM | Ki [2]: 38 nM

COc1ccc(C(=O)Nc2ccc(F)c([C@@]3(C)NC(=N)N(C)S(=O)(=O)[C@@]34CCN(S(=O)(=O)CC3CCCO3)C4)c2)nc1 (some centres unmarked) [Example 62]
Ki [1]: 3 nM | Ki [2]: 19 nM

COc1ccc(C(=O)Nc2ccc(F)c([C@@]3(C)NC(=N)N(C)S(=O)(=O)[C@]34CCN(S(=O)(=O)c3ccccc3)C4)c2)nc1 [Example 63]
Ki [1]: 12 nM | Ki [2]: 24 nM

COc1ccc(C(=O)Nc2ccc(F)c([C@@]3(C)NC(=N)N(C)S(=O)(=O)[C@]34CCN(S(=O)(=O)C3CC3)C4)c2)nc1 [Example 64]
Ki [1]: 40 nM | Ki [2]: 140 nM

COc1ccc(C(=O)Nc2ccc(F)c([C@@]3(C)NC(=N)N(C)S(=O)(=O)[C@]34CCN(S(=O)(=O)c3cn(C)cn3)C4)c2)nc1 [Example 65]
Ki [1]: 29 nM | Ki [2]: 68 nM

COc1ccc(C(=O)Nc2ccc(F)c([C@@]3(C)NC(=N)N(C)S(=O)(=O)[C@]34CCN(S(=O)(=O)CC3CCCO3)C4)c2)nc1 (some centres unmarked) [Example 66]
Ki [1]: 32 nM | Ki [2]: 87 nM

COc1ccc(C(=O)Nc2ccc(F)c([C@@]3(C)NC(=N)N(C)S(=O)(=O)[C@]34CCN(S(=O)(=O)c3cn[nH]c3)C4)c2)nc1 [Example 67]
Ki [1]: 20 nM | Ki [2]: 40 nM

COc1ccc(C(=O)Nc2ccc(F)c([C@@]3(C)NC(=N)N(C)S(=O)(=O)[C@]34CCN(S(C)(=O)=O)C4)c2)nc1 [Example 68]
Ki [1]: 35 nM | Ki [2]: 205 nM
